Reference: patent US12661415B2, “Isoindolinone compounds and imaging agents for imaging Huntingtin protein” (CHDI Foundation, Inc., priority 2021, dated 2026)

How the values were obtained:
[1] = biological target: T1, MBP-HTT(1-89)Q46-His(6×) (Exon1-Q46) protein aggregates (Homo sapiens, UniProt P42858, INS38QQQQQQQQQQQQQQQQQQQQQQQQQ); assay: Exon1-Q46 radioligand binding assay (RBA); conditions: aggregated Exon1-Q46 1 μM; 0.3 nM ligand [3H3-methyl]-5-((5-methoxypyridin-2-yl)methoxy)-2-(pyrazin-2-yl)benzo[d]oxazole; 60 minutes at 37° C.; read-out: Potency Range (IC50)
T1 construct: MBP-HTT(1-89)Q46-His(6×); His(6×) (C); made in house
T1 sequence (P42858 with tags, fused parts or gaps with the stated changes): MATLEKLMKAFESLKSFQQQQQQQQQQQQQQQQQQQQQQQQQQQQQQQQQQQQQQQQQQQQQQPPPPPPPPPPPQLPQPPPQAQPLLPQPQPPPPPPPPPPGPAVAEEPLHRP
Procedure: Exon1-Q46 Radioligand Binding Assay
For radioligand binding assays (RBA) MBP-HTT(1-89)Q46-His(6×) (“Exon1-Q46”) protein was generated based on a previous publication (Scherzinger et al. Cell, Vol. 90, 549-558, Aug. 8, 1997). For experiments 30 μM MBP-Exon1-Q46 was incubated with 150 μg/mL thrombin in assay buffer (150 mM NaCl, 50 mM Tris pH 8.0) and 2 mM CaCl2 for 16 hours at 37° C. Aggregated Exon1-Q46 was pelleted by centrifugation for 5 minutes at 13,000 rpm in a bench top centrifuge and re-dissolved in the same volume of assay buffer. Test compounds were prepared by titration in DMSO at 11 concentrations from 63 μM to 2 nM. For the RBA, Exon1-Q46 protein aggregates and test compounds were pre-incubated in assay buffer for 20 minutes at room temperature, in 100 μL/well in a 96-well plate (pp, round bottom). Then, ligand was added in 50 μL/well and incubated for 60 minutes at 37° C. Final assay concentrations were 1 μM to 30 pM test compound, 1 μM Exon1-Q46 protein (equivalent monomer concentration) and 0.3 nM ligand [^3H3-methyl]-5-((5-methoxypyridin-2-yl)methoxy)-2-(pyrazin-2-yl)benzo[d]oxazole. Samples were transferred onto GF/B filter plates and washed 2× with 200 μL PBS using a Filtermate Harvester. After drying filter plates for 1 hour at 55° C., the back of the plates were sealed with foil and 30 μL/well scintillation fluid (Packard MicroScint 40) added, incubated for 15 minutes in the dark and counted in a MicroBeta reader. For analysis, replicate data from independent assay plates were normalized towards 0% and 100% inhibition using control wells of vehicle (0% inhibition) and 1 μM unlabelled [^3H3-methyl]-5-((5-methoxypyridin-2-yl)methoxy)-2-(pyrazin-2-yl)benzo[d]oxazole (100% inhibition). IC50 values were determined with a sigmoidal inhibition model with four variables (top, bottom, slope, IC50) in a global fit using the normalized replicate data.
The results for various example compounds were as provided in the table below (+++<100 nM; ++100−500 nM; +>500 nM; ND: not determined): […]

[2] = Unbound brain fraction (fu,brain) in mouse brain by equilibrium dialysis; assay type: in vitro ADME; conditions: 20% mouse brain homogenate, 5 μM, equilibrium dialysis 6 h at 37° C., average of triplicate
Procedure: Compounds were tested for unbounded brain fraction (or free fraction in brain, fu,brain). It is an accepted standard in the CNS PET imaging field that compounds with low unbound fraction in brain (<5%) likely have high non-specific binding background that is undesirable for the detection of target binding. As a result, fu,brain is an important property in the design of PET ligands for brain imaging [see Zhang et al., Design and selection parameters to accelerate the discovery of novel central nervous system positron emission tomography (PET) ligands and their application in the development of a novel phosphodiesterase 2A PET ligand. J Med Chem 2013, 56 (11), 4568-79; Liu et al., Imaging Mutant Huntingtin Aggregates: Development of a Potential PET Ligand. J Med Chem 2020, 63 (15), 8608-8633].
Determining fu,brain in Mouse Brain by Equilibrium Dialysis. Dialysis membranes (12-14 kDa) (HTDialysis, Connecticut) were soaked in phosphate buffer (10 mM potassium phosphate and 0.8% sodium chloride buffer, pH 7.4 at 37° C.) for a minimum of 1 h, at this time ethanol was added (final concentration of 20% v/v) and membranes continued to soak for 30 min Mouse brain tissue was diluted in phosphate buffer in a […] (w/v) and homogenised using a Precellys 24 (Stretton Scientific, UK) to achieve a final concentration of 20% brain homogenate.
Test compounds prepared as DMSO stocks at 0.5 mM are diluted into brain homogenate to achieve 5 μM final substrate concentration (1% DMSO) and a t=0 sample was prepared by sampling 50 μL of into 400 μL of quench solution (Acetonitrile containing 0.1% formic acid and sulfisoxazole/tolbutamide/imipramine/labetalol 200 nM). Samples were matrix matched with the addition of 50 μL of assay buffer. The HTDialysis Teflon blocks (HTDialysis, Connecticut) were assembled with pre-soaked membrane between each receiver and donor well and clamped in the stainless steel pressure plate (HTDialysis, Connecticut). The lower compartment (acceptor side) was dosed with 120 μL of buffer and the upper compartment (donor side) was dosed with 120 μL of compound in homogenate. All test compounds and controls were completed in triplicate. The HT dialysis plate was sealed and incubated for 6 h at 37° C. shaking at 250 rpm.
Following the incubation, 50 μL of sample was removed from all donor and acceptor wells and transferred into a quench plate containing 400 μL of quench solution. All samples were matrix matched with 50 μL of the alternate blank matrix. Analytical samples were diluted 1:1 with water using the Janus Robot and analysed by LC-MS/MS.
Peak areas of donor and acceptor compartments were compared to determine percent unbound (% fu) and the average of triplicate measurements was reported. Reference T0 sample was used to calculate sample recovery (%). Control compounds were compared with historic and literature values to ensure assay functionality.

Question: Which IC50 [1] does the source give for COc1ccc(COc2cc3c(cc2F)CN(c2ccc(=O)[nH]n2)C3=O)nc1 [Compound 13-2, 5-Fluoro-6-[(5-methoxy-2-pyridyl)methoxy]-2-(6-oxo-1H-pyridazin-3-yl)isoindolin-1-one] here?
Answer: < 100 nM

Question: And the “Mean Free Brain Fraction (%)” value [2]?
Answer: 6.5%

Question: Which results are given for COc1ccc(COc2cc(F)c3c(c2)C(=O)N(c2ccc(=O)[nH]n2)C3)nc1 [Compound 13-3, 4-Fluoro-6-[(5-methoxy-2-pyridyl)methoxy]-2-(6-oxo-1H-pyridazin-3-yl)isoindolin-1-one]?
Answer: IC50 [1]: < 100 nM; Mean Free Brain Fraction (%) [2]: 6.2%

Question: Which results are given for COc1ccc(COc2cc3c(cc2F)CN(c2cn(C)c(=O)cn2)C3=O)nc1 [Compound 14-1, 5-Fluoro-6-((5-methoxypyridin-2-yl)methoxy)-2-(4-methyl-5-oxo-4,5-dihydropyrazin-2-yl)isoindolin-1-one]?
Answer: IC50 [1]: < 100 nM; Mean Free Brain Fraction (%) [2]: 15.5%

Question: Which results are given for COc1ccc(COc2cc3c(cc2F)CN(c2cnc(OC)cn2)C3=O)nc1 [Compound 14-2, 5-Fluoro-2-(5-methoxypyrazin-2-yl)-6-((5-methoxypyridin-2-yl)-methoxy)isoindolin-1-one]?
Answer: IC50 [1]: < 100 nM; Mean Free Brain Fraction (%) [2]: 0.7%

Question: What does the source list for COc1ccc(COc2cc3c(cc2F)C(=O)N(c2cn(C)c(=O)cn2)C3)nc1 [Compound 14-3, 6-Fluoro-5-((5-methoxypyridin-2-yl)methoxy)-2-(4-methyl-5-oxo-4,5-dihydropyrazin-2-yl)isoindolin-1-one]?
Answer: IC50 [1]: < 100 nM; Mean Free Brain Fraction (%) [2]: 17.1%
